Results from patent US7875647B2, “Heteroaryl-pyrazole derivatives as cannabinoid CB1 receptor antagonists” (Green Cross Corporation, priority 2006, dated 2011).

Biological target: T1, Cannabinoid-1 receptor (CB1R) (Rattus norvegicus, UniProt P20272)
T1 construct: The tissue obtained from the brain of SD rats was homogenized; from tissue; host or cells: brain of SD rats (membrane pellet of the homogenate)
Assay: Cannabinoid-1 receptor (CB1R) binding affinity assay ([3H]CP-55940, rat CB-1 receptor binding protocol)
Conditions: brain tissue of SD rats, [3H]CP-55940, 30° C. 60 min; read-out: IC50

T1 sequence (P20272 whole entry): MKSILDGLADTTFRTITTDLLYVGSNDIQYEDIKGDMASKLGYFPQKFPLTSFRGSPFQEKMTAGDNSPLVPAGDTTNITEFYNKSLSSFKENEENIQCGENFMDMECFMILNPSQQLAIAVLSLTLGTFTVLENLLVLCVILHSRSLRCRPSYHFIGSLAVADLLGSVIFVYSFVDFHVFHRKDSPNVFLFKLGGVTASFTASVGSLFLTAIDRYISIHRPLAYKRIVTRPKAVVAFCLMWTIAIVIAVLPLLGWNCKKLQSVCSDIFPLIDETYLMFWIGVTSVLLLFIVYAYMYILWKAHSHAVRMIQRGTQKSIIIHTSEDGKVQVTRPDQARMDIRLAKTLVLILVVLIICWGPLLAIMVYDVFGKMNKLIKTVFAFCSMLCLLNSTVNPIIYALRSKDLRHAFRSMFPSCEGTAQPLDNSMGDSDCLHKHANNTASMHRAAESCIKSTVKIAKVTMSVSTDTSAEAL

Row | Compound | IC50 [nM]
1 | CCc1c(-c2nnc(C3(CC)CC3)s2)nn(-c2ccc(Cl)cc2Cl)c1-c1ccc(Br)cc1 [Example 490, 2-(5-(4-bromophenyl)-1-(2,4-dichlorophenyl)-4-ethyl-1H-pyrazol-3-yl)-5-(1-ethylcyclopropyl)-1,3,4-thiadiazole] | 19.8
2 | CCc1c(-c2nnc(C3(C#N)CC3)s2)nn(-c2ccc(Cl)cc2Cl)c1-c1ccc(Cl)cc1 [Example 491, 1-(5-(5-(4-chlorophenyl)-1-(2,4-dichlorophenyl)-4-ethyl-1H-pyrazol-3-yl)-1,3,4-thiadiazol-2-yl)cyclopropanecarbonitrile] | 143
3 | CCc1c(-c2nnc(C3(c4ccc(F)cc4)CC3)s2)nn(-c2ccc(Cl)cc2Cl)c1-c1ccc(Br)cc1 [Example 492, 2-(5-(4-bromophenyl)-1-(2,4-dichlorophenyl)-4-ethyl-1H-pyrazol-3-yl)-5-(1-(4-fluorophenyl)cyclopropyl)-1,3,4-thiadiazole] | 2.24
4 | CCc1c(-c2nnc(C3(c4cccc(Cl)c4)CC3)s2)nn(-c2ccc(Cl)cc2Cl)c1-c1ccc(Cl)cc1 [Example 494, 2-(5-(4-chlorophenyl)-1-(2,4-dichlorophenyl)-4-ethyl-1H-pyrazol-3-yl)-5-(1-(3-chlorophenyl)cyclopropyl)-1,3,4-thiadiazole] | 6.43
5 | CCc1c(-c2nnc(C3(c4cccc(Cl)c4)CC3)s2)nn(-c2ccc(Cl)cc2Cl)c1-c1ccc(Br)cc1 [Example 495, 2-(5-(4-bromophenyl)-1-(2,4-dichlorophenyl)-4-ethyl-1H-pyrazol-3-yl)-5-(1-(3-chlorophenyl)cyclopropyl)-1,3,4-thiadiazole] | 6.23
6 | Cc1c(-c2nnc(C3(c4ccc(F)cc4)CC3)s2)nn(-c2ccc(Cl)cc2Cl)c1-c1ccc(Cl)cc1 [Example 496, 2-(5-(4-chlorophenyl)-1-(2,4-dichlorophenyl)-4-methyl-1H-pyrazol-3-yl)-5-(1-(4-fluorophenyl)cyclopropyl)-1,3,4-thiadiazole] | 48.9
7 | CC(C)c1c(-c2nnc(C3(C(F)(F)F)CC3)s2)nn(-c2ccc(Cl)cc2Cl)c1-c1ccc(Cl)cc1 [Example 498, 2-(5-(4-chlorophenyl)-1-(2,4-dichlorophenyl)-4-isopropyl-1H-pyrazol-3-yl)-5-(1-(trifluoromethyl)cyclopropyl)-1,3,4-thiadiazole] | 11.4
8 | CCCc1c(-c2nnc(C3(C(F)(F)F)CC3)s2)nn(-c2ccc(Cl)cc2Cl)c1-c1ccc(Cl)cc1 [Example 499, 2-(5-(4-chlorophenyl)-1-(2,4-dichlorophenyl)-4-propyl-1H-pyrazol-3-yl)-5-(1-(trifluoromethyl)cyclopropyl)-1,3,4-thiadiazole] | 21
9 | CCc1c(-c2nnc(C3(C(F)(F)F)CC3)s2)nn(-c2ccc(Cl)cc2Cl)c1-c1ccc(Cl)cc1 [Example 500, 2-(5-(4-chlorophenyl)-1-(2,4-dichlorophenyl)-4-ethyl-1H-pyrazol-3-yl)-5-(1-(trifluoromethyl)cyclopropyl)-1,3,4-thiadiazole] | 23.3
10 | CCc1c(-c2nnc(C3(c4ccccc4F)CC3)s2)nn(-c2ccc(Cl)cc2Cl)c1-c1ccc(Cl)cc1 [Example 501, 2-(5-(4-chlorophenyl)-1-(2,4-dichlorophenyl)-4-ethyl-1H-pyrazol-3-yl)-5-(1-(2-fluorophenyl)cyclopropyl)-1,3,4-thiadiazole] | 6.81
11 | Clc1ccc(-c2c(Cn3cncn3)c(-c3nnc(C4CCC4)s3)nn2-c2ccc(Cl)cc2Cl)cc1 [Example 504, 2-(4-((1H-1,2,4-triazol-1-yl)methyl)-5-(4-chlorophenyl)-1-(2,4-dichlorophenyl)-1H-pyrazol-3-yl)-5-cyclobutyl-1,3,4-thiadiazole] | 2.18
12 | Clc1ccc(-c2c(Cn3cncn3)c(-c3nnc(C4(c5ccc(Cl)cc5)CC4)s3)nn2-c2ccc(Cl)cc2Cl)cc1 [Example 506, 2-(4-((1H-1,2,4-triazol-1-yl)methyl)-5-(4-chlorophenyl)-1-(2,4-dichlorophenyl)-1H-pyrazol-3-yl)-5-(1-(4-chlorophenyl)cyclopropyl)-1,3,4-thiadiazole] | 2.49
